From patent US9695155B2, “Herbicidal substituted pyrimidinyloxy benzene compounds” (E. I. DU PONT DE NEMOURS AND COMPANY, priority 2013, dated 2017)

How the values were obtained:
barnyardgrass [1] = assay: Test A preemergence; format: in vivo, Echinochloa crus-galli; details: for Barnyardgrass plant response rating (0 to 100 scale, 0 is no effect, 100 is complete control): 125 g ai/ha; for Barnyardgrass plant response rating: 500 g ai/ha, 0 to 100 scale where 0 is no effect and 100 is complete control
Summary of the method: (§1)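 Visual 0–100 rating (100 = complete control) taken about 10 d post-treatment relative to untreated checks. Preemergence: directed soil spray on sown loam/sand pots. Postemergence: seedlings 2–10 cm, 1–2 leaf. Non-phytotoxic solvent formulation with surfactant.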

large (Lg) crabgrass [2] = assay: Test A postemergence; format: in vivo, Digitaria sanguinalis
Summary of the method: as §1

velvetleaf [3] = assay: Test A preemergence; format: in vivo, Abutilon theophrasti; details: for Velvetleaf plant response rating (0 to 100 scale): 125 g ai/ha; for Velvetleaf plant response rating: 500 g ai/ha, 0 to 100 scale where 0 is no effect and 100 is complete control
Summary of the method: as §1

pigweed [4] = assay: Test A postemergence; format: in vivo, Amaranthus retroflexus
Summary of the method: as §1

barnyardgrass [5] = assay: Test B flooded paddy test; format: in vivo, Echinochloa crus-galli; details: Flood, 250 g ai/ha; 0 to 100 scale where 0 is no effect and 100 is complete control
Summary of the method: (§2)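 Seedlings are raised to two leaves, flooded to a depth of 3 cm and dosed by adding the compound to the floodwater. Water level is kept constant, and plants are scored visually versus controls 13–15 days later (0 = no effect, 100 = complete control).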

rice [6] = assay: Test B flooded paddy test; format: in vivo, Oryza sativa; details: Flood, 250 g ai/ha; 0 to 100 scale where 0 is no effect and 100 is complete control
Summary of the method: as §2

rice [7] = assay: Test C flooded paddy test; format: in vivo, Oryza sativa; details: Flood, scale 0 to 100 (0 no effect, 100 complete control), 13 to 15 days
From the text: (§3) At time of treatment, test pots were flooded to 3 cm above the soil surface, treated by application of test compounds directly to the paddy water, and then maintained at that water depth for the duration of the test. Treated plants and controls were maintained in a greenhouse for 13 to 15 days, after which time all species were compared to controls and visually evaluated. […] A dash (-) response means no test result.

giant foxtail [8] = assay: Test A postemergence; format: in vivo, Setaria faberii
Summary of the method: as §1

velvetleaf [9] = assay: Test A postemergence; format: in vivo, Abutilon theophrasti
Summary of the method: as §1

large (Lg) crabgrass [10] = assay: Test A preemergence; format: in vivo, Digitaria sanguinalis; details: for Crabgrass, Large plant response rating (0 to 100 scale): 125 g ai/ha; for Crabgrass, Large plant response rating: 500 g ai/ha, 0 to 100 scale where 0 is no effect and 100 is complete control
Summary of the method: as §1

ducksalad = assay: Test C flooded paddy test; format: in vivo, Heteranthera limosa; details: Flood, scale 0 to 100 (0 no effect, 100 complete control), 13 to 15 days
From the text: as §3

pigweed [11] = assay: Test A preemergence; format: in vivo, Amaranthus retroflexus; details: for Pigweed plant response rating (0 to 100 scale): 125 g ai/ha; for Pigweed plant response rating: 500 g ai/ha, 0 to 100 scale where 0 is no effect and 100 is complete control
Summary of the method: as §1

wheat [12] = assay: Test A postemergence; format: in vivo, Triticum aestivum
Summary of the method: as §1

wheat [13] = assay: Test A preemergence; format: in vivo, Triticum aestivum; details: for Wheat plant response rating (0 to 100 scale): 125 g ai/ha; for Wheat plant response rating: 500 g ai/ha, 0 to 100 scale where 0 is no effect and 100 is complete control
Summary of the method: as §1

barnyardgrass [14] = assay: Test A postemergence; format: in vivo, Echinochloa crus-galli
Summary of the method: as §1

sedge, umbrella [15] = assay: Test B flooded paddy test; format: in vivo, Cyperus difformis; details: Flood, 250 g ai/ha; 0 to 100 scale where 0 is no effect and 100 is complete control
Summary of the method: as §2

sedge, umbrella [16] = assay: Test C flooded paddy test; format: in vivo, Cyperus difformis; details: Flood, scale 0 to 100 (0 no effect, 100 complete control), 13 to 15 days
From the text: as §3

morningglory [17] = assay: Test A postemergence; format: in vivo, Ipomoea spp.
Summary of the method: as §1

morningglory [18] = assay: Test A preemergence; format: in vivo, Ipomoea spp.; details: for Morningglory plant response rating (0 to 100 scale): 125 g ai/ha; for Morningglory plant response rating: 500 g ai/ha, 0 to 100 scale where 0 is no effect and 100 is complete control
Summary of the method: as §1

Heteranthera limosa = assay: Test B flooded paddy test; format: in vivo; details: Flood, 250 g ai/ha; 0 to 100 scale where 0 is no effect and 100 is complete control
Summary of the method: as §2

giant foxtail [19] = assay: Test A preemergence; format: in vivo, Setaria faberii; details: for Foxtail, Giant plant response rating (0 to 100 scale): 125 g ai/ha; for Foxtail, Giant plant response rating: 500 g ai/ha, 0 to 100 scale where 0 is no effect and 100 is complete control
Summary of the method: as §1

corn [20] = assay: Test A postemergence; format: in vivo, Zea mays
Summary of the method: as §1

corn [21] = assay: Test A preemergence; format: in vivo, Zea mays; details: for Corn plant response rating (0 to 100 scale): 125 g ai/ha; for Corn plant response rating: 500 g ai/ha, 0 to 100 scale where 0 is no effect and 100 is complete control
Summary of the method: as §1

barnyardgrass [22] = assay: Test C flooded paddy test; format: in vivo, Echinochloa crus-galli; details: Flood, scale 0 to 100 (0 no effect, 100 complete control), 13 to 15 days
From the text: as §3

[23] = 125 g ai/ha, 0 to 100 scale where 0 is no effect and 100 is complete control
[24] = 500 g ai/ha, 0 to 100 scale where 0 is no effect and 100 is complete control
[25] = 125 g ai/ha, 0 to 100 scale, 0 no effect, 100 complete control

SMILES: COc1cnc(Oc2ccccc2-n2cc(Br)cn2)nc1 [Compound 234]
- Barnyardgrass plant response rating (0 to 100 scale, 0 is no effect, 100 is complete control) (barnyardgrass [1]): 20
- Barnyardgrass plant response rating (barnyardgrass [1]): 100
- Crabgrass, Large plant response rating (large (Lg) crabgrass [2]; [23]): 20
- Plant response rating, Crabgrass, Large (large (Lg) crabgrass [2]; [24]): 60
- Velvetleaf plant response rating (0 to 100 scale) (velvetleaf [3]): 40
- Velvetleaf plant response rating (velvetleaf [3]): 100
- Pigweed plant response rating (pigweed [4]; [23]): 100
- Plant response rating, Pigweed (pigweed [4]; [24]): 100
- Plant response rating, Barnyardgrass (barnyardgrass [5]): 20
- Plant response rating, Rice (rice [6]): 20
- Plant response rating, Rice (rice [7]; 31 g ai/ha): 0
- Plant response rating, Rice (rice [7]; 62 g ai/ha): 0
- Plant response rating, Rice (rice [7]; 125 g ai/ha): 0
- Plant response rating, Rice (rice [7]; 250 g ai/ha): 0
- Foxtail, Giant plant response rating (giant foxtail [8]; [23]): 30
- Plant response rating, Foxtail, Giant (giant foxtail [8]; [24]): 70
- Velvetleaf plant response rating (velvetleaf [9]; [23]): 70
- Plant response rating, Velvetleaf (velvetleaf [9]; [24]): 100
- Crabgrass, Large plant response rating (0 to 100 scale) (large (Lg) crabgrass [10]): 90
- Crabgrass, Large plant response rating (large (Lg) crabgrass [10]): 100
- Plant response rating, Ducksalad (ducksalad; 31 g ai/ha): 0
- Plant response rating, Ducksalad (ducksalad; 62 g ai/ha): 0
- Plant response rating, Ducksalad (ducksalad; 125 g ai/ha): 0
- Plant response rating, Ducksalad (ducksalad; 250 g ai/ha): 30
- Pigweed plant response rating (0 to 100 scale) (pigweed [11]): 90
- Pigweed plant response rating (pigweed [11]): 100
- Wheat plant response rating (wheat [12]; [23]): 20
- Plant response rating, Wheat (wheat [12]; [24]): 20
- Wheat plant response rating (0 to 100 scale) (wheat [13]): 0
- Wheat plant response rating (wheat [13]): 0
- Barnyardgrass plant response rating (barnyardgrass [14]; [23]): 20
- Plant response rating, Barnyardgrass (barnyardgrass [14]; [24]): 70
- Plant response rating, Sedge, Umbrella (sedge, umbrella [15]): 90
- Plant response rating, Sedge, Umbrella (sedge, umbrella [16]; 31 g ai/ha): 0
- Plant response rating, Sedge, Umbrella (sedge, umbrella [16]; 62 g ai/ha): 0
- Plant response rating, Sedge, Umbrella (sedge, umbrella [16]; 125 g ai/ha): 0
- Plant response rating, Sedge, Umbrella (sedge, umbrella [16]; 250 g ai/ha): 40
- Morningglory plant response rating (morningglory [17]; [23]): 40
- Plant response rating, Morningglory (morningglory [17]; [24]): 60
- Morningglory plant response rating (0 to 100 scale) (morningglory [18]): 0
- Morningglory plant response rating (morningglory [18]): 100
- Plant response rating, Ducksalad (Heteranthera limosa): 90
- Foxtail, Giant plant response rating (0 to 100 scale) (giant foxtail [19]): 60
- Foxtail, Giant plant response rating (giant foxtail [19]): 90
- Corn plant response rating (corn [20]; [23]): 20
- Plant response rating, Corn (corn [20]; [24]): 30
- Corn plant response rating (0 to 100 scale) (corn [21]): 0
- Corn plant response rating (corn [21]): 90
- Plant response rating, Barnyardgrass (barnyardgrass [22]; 31 g ai/ha): 0
- Plant response rating, Barnyardgrass (barnyardgrass [22]; 62 g ai/ha): 0
- Plant response rating, Barnyardgrass (barnyardgrass [22]; 125 g ai/ha): 0
- Plant response rating, Barnyardgrass (barnyardgrass [22]; 250 g ai/ha): 0

SMILES: C[Si](C)(C)C#Cc1cccc(Oc2ncc(Cl)cn2)c1-n1cc(Br)cn1 [Compound 293]
- Barnyardgrass plant response rating (0 to 100 scale, 0 is no effect, 100 is complete control) (barnyardgrass [1]): 0
- Barnyardgrass plant response rating (barnyardgrass [1]): 10
- Plant response rating, Crabgrass, Large (large (Lg) crabgrass [2]; [25]): 20
- Plant response rating, Crabgrass, Large (large (Lg) crabgrass [2]; [24]): 30
- Velvetleaf plant response rating (0 to 100 scale) (velvetleaf [3]): 0
- Velvetleaf plant response rating (velvetleaf [3]): 0
- Plant response rating, Pigweed (pigweed [4]; [25]): 60
- Plant response rating, Pigweed (pigweed [4]; [24]): 90
- Plant response rating, Barnyardgrass (barnyardgrass [5]): 0
- Plant response rating, Rice (rice [6]): 0
- Plant response rating, Rice (rice [7]; 31 g ai/ha): 0
- Plant response rating, Rice (rice [7]; 62 g ai/ha): 0
- Plant response rating, Rice (rice [7]; 125 g ai/ha): 0
- Plant response rating, Foxtail, Giant (giant foxtail [8]; [25]): 20
- Plant response rating, Foxtail, Giant (giant foxtail [8]; [24]): 30
- Plant response rating, Velvetleaf (velvetleaf [9]; [25]): 60
- Plant response rating, Velvetleaf (velvetleaf [9]; [24]): 80
- Crabgrass, Large plant response rating (0 to 100 scale) (large (Lg) crabgrass [10]): 40
- Crabgrass, Large plant response rating (large (Lg) crabgrass [10]): 90
- Plant response rating, Ducksalad (ducksalad; 31 g ai/ha): 30
- Plant response rating, Ducksalad (ducksalad; 62 g ai/ha): 40
- Plant response rating, Ducksalad (ducksalad; 125 g ai/ha): 75
- Pigweed plant response rating (0 to 100 scale) (pigweed [11]): 20
- Pigweed plant response rating (pigweed [11]): 80
- Plant response rating, Wheat (wheat [12]; [25]): 0
- Plant response rating, Wheat (wheat [12]; [24]): 0
- Wheat plant response rating (0 to 100 scale) (wheat [13]): 0
- Wheat plant response rating (wheat [13]): 0
- Plant response rating, Barnyardgrass (barnyardgrass [14]; [25]): 10
- Plant response rating, Barnyardgrass (barnyardgrass [14]; [24]): 10
- Plant response rating, Sedge, Umbrella (sedge, umbrella [15]): 80
- Plant response rating, Sedge, Umbrella (sedge, umbrella [16]; 31 g ai/ha): 60
- Plant response rating, Sedge, Umbrella (sedge, umbrella [16]; 62 g ai/ha): 75
- Plant response rating, Sedge, Umbrella (sedge, umbrella [16]; 125 g ai/ha): 85
- Plant response rating, Morningglory (morningglory [17]; [25]): 10
- Plant response rating, Morningglory (morningglory [17]; [24]): 30
- Morningglory plant response rating (0 to 100 scale) (morningglory [18]): 0
- Morningglory plant response rating (morningglory [18]): 0
- Plant response rating, Ducksalad (Heteranthera limosa): 80
- Foxtail, Giant plant response rating (0 to 100 scale) (giant foxtail [19]): 20
- Foxtail, Giant plant response rating (giant foxtail [19]): 90
- Plant response rating, Corn (corn [20]; [25]): 0
- Plant response rating, Corn (corn [20]; [24]): 20
- Corn plant response rating (0 to 100 scale) (corn [21]): 0
- Corn plant response rating (corn [21]): 0
- Plant response rating, Barnyardgrass (barnyardgrass [22]; 31 g ai/ha): 0
- Plant response rating, Barnyardgrass (barnyardgrass [22]; 62 g ai/ha): 0
- Plant response rating, Barnyardgrass (barnyardgrass [22]; 125 g ai/ha): 0
